According to US20180246095A1, “COMPOSITIONS AND METHODS FOR DIAGNOSING AND TREATING LYME DISEASE” (priority 2015, published 2018):

System: B. burgdorferi B31
Assay: RNA-Seq gene expression profile of B. burgdorferi persisters that survived antibiotic treatment, compared with drug free control
Assay type: cell-based, Borrelia burgdorferi
Procedure: RNA Sequencing (RNA-Seq) was performed to determine the gene expression profile of B. burgdorferi persisters that survived antibiotic treatment using next generation sequencing to shed light on the mechanisms of B. burgdorferi persistence. B. burgdorferi B31 cultures were grown for 5 days to 1×10^7 spirochetes/ml in BSK-H medium followed by treatment with 50 μg/ml doxycycline or 50 μg/ml amoxicillin for 6 days. Triplicate biological samples were used for each group. The total RNA was extracted and ribosomal RNA was removed prior to preparation of cDNA libraries for Illumina sequencing. […] The RNA-Seq data was analyzed by BLAST analysis and mapped to KEGG pathways.

## CC1(C)S[C@@H]2[C@H](NC(=O)[C@H](N)c3ccc(O)cc3)C(=O)N2[C@H]1C(=O)O [Amo]
Gene BB_U05, PF-32 protein
  Expression BB_U05: 0
Gene BB_U06, plasmid partition protein
  Expression BB_U06: 0
Gene BB_U07, protein BBC01
  Expression BB_U07: 0
Gene BB_U08, SUA5 subfamily protein
  Expression BB_U08: 0
Gene BB_U09, TM2 family protein
  Expression BB_U09: 0
Gene BB_U10, protein BBC01
  Expression BB_U10: 0
Gene BB_U11, Sua5/YciO/YrdC/YwlC family protein
  Expression BB_U11: 0
Gene BB_t19, Ser tRNA
  Expression BB_t19: 7
Gene BB_t26, Arg tRNA
  Expression BB_t26: 0
Gene BB_t27, Leu tRNA
  Expression BB_t27: 2
Gene bdrO BB_L35, protein BdrO
  Expression BB_L35: 0
Gene bdrQ BB_N34, BdrQ
  Expression BB_N34: 1
Gene bdrW BB_Q34, protein BdrW protein
  Expression BB_Q34: 1
Gene blyA BB_L23, holin protein
  Expression BB_L23: 0
Gene blyB BB_L24, holin protein
  Expression BB_L24: 0
Gene bppA BB_L36, protein BppA
  Expression BB_L36: 0
Gene bppB BB_L37, protein BppB
  Expression BB_L37: 1
Gene erpX BB_Q47, protein ErpX
  Expression BB_Q47: 0
Gene mlpH BB_L28, lipoprotein
  Expression BB_L28: 1
Gene tRNA-Arg-3 BB_t16, Arg tRNA
  Expression BB_t16: 3
Gene tRNA-His-1 BB_t08, His tRNA
  Expression BB_t08: 0
Gene tRNA-Lys-2 BB_t07, Lys tRNA
  Expression BB_t07: 0
Gene tRNA-Thr-2 BB_t14, Thr tRNA
  Expression BB_t14: 0
Gene tRNA-Trp-1 BB_t03, Trp tRNA
  Expression BB_t03: 1
Gene vraA BB_I16, repetitive antigen A
  Expression BB_I16: 0
glycerol-3-phosphate dehydrogenase
  Expression BB_0368: 95
Glycoprotease family protein
  Expression BB_0185: 50
Hemolysin accessory protein
  Expression blyB BB_R24: 0
Holin protein
  Expression blyA BB_M23: 0
  Expression blyA BB_N23: 50
  Expression blyA BB_P23: 64
  Expression blyA BB_S23: 0
  Expression blyB BB_N24: 0
  Expression blyB BB_S24: 0
Hypothetical protein
  Expression BB_0024: 390
  Expression BB_0029: 114
  Expression BB_0044: 0
  Expression BB_0102: 53
  Expression BB_0162: 401
  Expression BB_0238: 26
  Expression BB_0242: 2
  Expression BB_0252: 497
  Expression BB_0308: 0
  Expression BB_0322: 1
  Expression BB_0331: 5
  Expression BB_0336: 61
  Expression BB_0352: 66
  Expression BB_0367: 176
  Expression BB_0373: 4
  Expression BB_0378: 129
  Expression BB_0428: 627
  Expression BB_0525: 73
  Expression BB_0549: 0
  Expression BB_0576: 140
  Expression BB_0646: 444
  Expression BB_0663: 533
  Expression BB_0673: 15
  Expression BB_0707: 35
  Expression BB_0739: 51
  Expression BB_0799: 2
  Expression BB_0824: 98
  Expression BB_0838a: 4
  Expression BB_A09: 50
  Expression BB_A13: 256
  Expression BB_A61: 133
  Expression BB_D22: 5
  Expression BB_D24: 0
  Expression BB_D0027: 0
  Expression BB_G33: 13
  Expression BB_G34: 439
  Expression BB_H05: 23
  Expression BB_H27: 4
  Expression BB_J13: 5
  Expression BB_J19: 3
  Expression BB_J24: 0
  Expression BB_J46: 17
  Expression BB_J47: 69
  Expression BB_J0056: 13
  Expression BB_L19: 24
  Expression BB_L20: 22
  Expression BB_L25: 13
  Expression BB_L26: 1
  Expression BB_L41: 0
  Expression BB_M12: 0
  Expression BB_M13: 0
  Expression BB_M14: 0
  Expression BB_M15: 0
  Expression BB_M17: 0
  Expression BB_M25: 0
  Expression BB_M30: 0
  Expression BB_M39: 0
  Expression BB_M41: 0
  Expression BB_N20: 68
  Expression BB_N30: 1
  Expression BB_N41: 47
  Expression BB_O02: 0
  Expression BB_O03: 0
  Expression BB_O04: 0
  Expression BB_O05: 0
  Expression BB_O06: 0
  Expression BB_O08: 0
  Expression BB_O09: 0
  Expression BB_O10: 0
  Expression BB_O13: 0
  Expression BB_O29: 46
  Expression BB_O31: 0
  Expression BB_P20: 288
  Expression BB_P21: 291
  Expression BB_P30: 5
  Expression BB_Q27: 36
  Expression BB_Q28: 22
  Expression BB_Q32: 14
  Expression BB_Q33: 147
  Expression BB_Q38: 0
  Expression BB_Q39: 0
  Expression BB_Q54: 1
  Expression BB_Q62: 1
  Expression BB_Q0091: 6
  Expression BB_R20: 73
  Expression BB_R25: 43
  Expression BB_R26: 393
  Expression BB_R29: 252
  Expression BB_R31: 0
  Expression BB_R43: 111
  Expression BB_S06: 0
  Expression BB_S08: 0
  Expression BB_S11: 0
  Expression BB_S12: 0
  Expression BB_S13: 0
  Expression BB_S14: 0
  Expression BB_S18: 0
  Expression BB_S19: 0
  Expression BB_S20: 0
  Expression BB_S21: 11
  Expression BB_S25: 120
  Expression BB_S33: 29
Integral membrane protein
  Expression BB_0316: 36
  Expression BB_0580: 210
lipoprotein
  Expression BB_0193: 15
  Expression BB_0628: 158
  Expression BB_0664: 142
  Expression BB_0832: 753
  Expression BB_B27: 42
  Expression BB_D10: 51
  Expression BB_J36: 90
  Expression mlpF BB_M28: 0
Lipoprotein LA7
  Expression la7 BB_0365: 112
long-chain-fatty-acid CoA ligase
  Expression BB_0593: 24
Membrane protein
  Expression BB_0353: 31
  Expression BB_0759: 1041
Membrane protein insertion efficiency factor
  Expression BB_0143: 1085
Outer membrane protein P13
  Expression BB_0034: 41
Phage portal protein
  Expression BB_M01: 0
Phosphate ABC transporter permease PstC
  Expression pstC BB_0216: 128
phosphofructokinase
  Expression BB_0727: 48
Plasmid partition protein
  Expression BB_H29: 0
proline--tRNA ligase
  Expression proS BB_0402: 87
Protein BdrF
  Expression bdrF BB_S29: 15
Protein BdrV
  Expression bdrV BB_Q42: 1
Protein ErpM
  Expression erpM BB_O40: 0
Protein RepU
  Expression BB_H13: 3
Putative surface protein
  Expression BB_A69: 98
rRNA small subunit methyltransferase A
  Expression ksgA BB_0590: 177
Replicative DNA helicase
  Expression dnaB BB_0111: 144
Response regulator
  Expression BB_0419: 34
Signal peptidase I
  Expression lepB BB_0263: 98
Small conductance mechanosensitive ion channel
  Expression BB_0453: 467
spermidine/putrescine transport system permease
  Expression BB_0641: 70
Superoxide dismutase
  Expression BB_0153: 202
Surface antigen
  Expression BB_I39: 8
tRNA-dihydrouridine synthase A
  Expression BB_0225: 194
Transcription termination factor Rho
  Expression rho BB_0230: 22
Transcriptional regulator
  Expression BB_0025: 272
Translation initiation factor IF-1
  Expression infA BB_0169: 522
uracil-DNA glycosylase
  Expression ung BB_0053: 1626
Uridine kinase
  Expression udk BB_0015: 37
Xylose operon regulatory protein
  Expression BB_0831: 122
